We go through 21 molecules from ChEMBL document CHEMBL3992551, “Synthesis and evaluation of N-(benzofuran-5-yl)aromaticsulfonamide derivatives as novel HIF-1 inhibitors that possess anti-angiogenic potential” (Bioorg Med Chem, 2017).

Series [1] has as its system MDA-MB-231. The series can be described thus: Antiproliferative activity against human MDA-MB-231 cells after 72 hrs under hypoxic condition by MTT assay. Type of series: functional, cell-based. The settings on record: MDA-MB-231, 72 h.
Series [2] has as its system MDA-MB-468. The series can be described thus: Antiproliferative activity against human MDA-MB-468 cells after 72 hrs under hypoxic condition by MTT assay. The format is functional, cell-based. The settings on record: MDA-MB-468, 72 h.
Series [3] deals with T1, Hypoxia-inducible factor 1-alpha (Homo sapiens, UniProt Q16665). The series can be described thus: Inhibition of HIF-1alpha (unknown origin) transcriptional activity expressed in human MCF7 cells after 24 hrs under hypoxic condition by HRE luciferase reporter gene assay. Type of series: cell-based.
Target sequence in this assay (Q16665 whole entry): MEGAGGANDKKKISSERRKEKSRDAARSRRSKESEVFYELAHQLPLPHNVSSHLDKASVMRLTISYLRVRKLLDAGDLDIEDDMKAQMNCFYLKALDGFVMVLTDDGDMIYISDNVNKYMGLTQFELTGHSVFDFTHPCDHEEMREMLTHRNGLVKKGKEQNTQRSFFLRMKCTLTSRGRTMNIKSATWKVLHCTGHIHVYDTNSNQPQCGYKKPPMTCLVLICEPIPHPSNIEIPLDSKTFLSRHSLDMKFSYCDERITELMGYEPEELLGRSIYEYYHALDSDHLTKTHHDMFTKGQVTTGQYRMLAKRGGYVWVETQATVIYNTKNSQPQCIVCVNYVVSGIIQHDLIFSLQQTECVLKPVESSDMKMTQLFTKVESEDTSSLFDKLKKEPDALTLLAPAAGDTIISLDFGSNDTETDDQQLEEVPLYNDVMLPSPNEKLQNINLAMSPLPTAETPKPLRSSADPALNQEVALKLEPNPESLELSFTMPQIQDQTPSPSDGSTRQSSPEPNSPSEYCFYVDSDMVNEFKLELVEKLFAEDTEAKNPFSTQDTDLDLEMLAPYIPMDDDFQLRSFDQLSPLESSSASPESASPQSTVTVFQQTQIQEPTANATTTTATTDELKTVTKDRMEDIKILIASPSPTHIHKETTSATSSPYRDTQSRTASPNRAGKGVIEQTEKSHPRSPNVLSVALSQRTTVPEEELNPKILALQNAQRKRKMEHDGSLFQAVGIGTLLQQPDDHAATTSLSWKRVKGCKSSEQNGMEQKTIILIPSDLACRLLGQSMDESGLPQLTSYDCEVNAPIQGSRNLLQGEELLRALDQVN
The test system of series [4] is MCF7. The series can be described thus: Antiproliferative activity against human MCF7 cells after 72 hrs under hypoxic condition by MTT assay. The format is functional, cell-based. As to conditions: MCF7, 72 h.
Series [5] concerns MCF7. The series can be described thus: Cytotoxicity against human MCF7 cells harboring HRE-driven luciferase gene. Type of series: cell-based.
Series [6] has as its system MCF7. The experiment in a line: Downregulation of HIF-1alpha protein expression level in human MCF7 cells after 24 hrs under hypoxic condition by Western blot method. Type of series: functional, cell-based. On the technique in general: In western blotting, separated proteins are transferred to a membrane and probed.
For series [7], the system named is HUVEC. The series can be described thus: Cytotoxicity against HUVEC assessed as reduction in cell viability at 2.5 to 50 uM after 24 hrs by MTT assay. The settings on record: human. The format is cell-based.
Series [8] deals with T1, Hypoxia-inducible factor 1-alpha. The series can be described thus: Inhibition of HIF-1alpha transcriptional activity in human MCF7 cells assessed as reduction in VEGF mRNA level after 24 hrs under hypoxic condition by RT-PCR method. Type of series: cell-based.
Target sequence in this assay (Q16665 whole entry, looked up): as the sequence (Q16665 whole entry) above
Series [9] concerns HUVEC. The experiment in a line: Anti-migratory activity against HUVEC assessed as inhibition of hypoxia-induced cell movement after 24 hrs by wound healing assay. The format is functional, cell-based. The settings on record: Homo sapiens.
Series [10] addresses T1, Hypoxia-inducible factor 1-alpha. The experiment in a line: Inhibition of HIF-1alpha transcriptional activity in human MCF7 cells assessed as reduction in VEGF secretion after 24 hrs under hypoxic condition by ELISA. Type of series: cell-based.
In series [11] the test system is Chorioallantoic membrane. The series can be described thus: Antiangiogenic activity in chicken chorioallantoic membrane assessed as inhibition of hypoxia-induced vessel formation after 3 days. Type of series: functional. The settings on record: Gallus gallus.
In series [12] the test system is HUVEC. The experiment in a line: Anti-angiogenic activity against HUVEC assessed as inhibition of hypoxia-induced tube formation after 24 hrs by 2-dimensional matrigel assay. Type of series: functional, cell-based. The settings on record: Homo sapiens.
The test system of series [13] is MCF7. The series can be described thus: Downregulation of HIF-1alpha mRNA expression level in human MCF7 cells after 24 hrs under hypoxic condition by RT-PCR method. The format is functional, cell-based.

The IC50 is the concentration needed to halve the response being measured. Take `CCOC(=O)c1oc2ccc(NS(=O)(=O)c3ccccc3Br)cc2c1C`: the IC50 in [1] was 179 µM; in series [2], 138 µM; in [3], 19.9 µM; in series [4], 185 µM. Besides, the Activity entry in series [5] is “Non-Toxic”.
The corresponding values for `CCOC(=O)c1oc2ccc(NS(=O)(=O)c3ccc(C(C)(C)C)cc3)cc2c1C` are 22.4 µM, 8.1 µM, 27.1 µM, 22.1 µM and “Non-Toxic”.
The corresponding values for `CCOC(=O)c1oc2ccc(NS(=O)(=O)c3ccc4ccccc4c3)cc2c1C` are 21.6 µM, 15.7 µM, 22.6 µM, 20.8 µM and “Non-Toxic”.
Consider `CCOC(=O)c1oc2ccc(NS(=O)(=O)c3cc(OC)ccc3OC)cc2c1C`, for which the concentration for half-maximal inhibition (IC50) in series [1] was found to be 26.7 µM; in series [2], 20.7 µM; in series [3], 15.5 µM; in [4], 52.3 µM. The Activity result in series [5] was “Non-Toxic”.
Regarding `CCOC(=O)c1oc2ccc(NS(=O)(=O)c3ccc(Br)cc3)cc2c1C`, the IC50 in [1] was 31.1 µM; in series [2], 26.4 µM; in series [3], 29.9 µM; in series [4], 56.5 µM. Also, the Activity entry in [5] is “Non-Toxic”.
As to `CCOC(=O)c1oc2ccc(NS(=O)(=O)c3cccc(Br)c3)cc2c1C`, the half-maximal inhibitory concentration (IC50) in series [1] is 33.7 µM; in [2], 30.7 µM; in series [3], 25.6 µM; in [4], 57 µM. For the same molecule, in series [5], the Activity entry is on record as “Non-Toxic”.
As for `CCOC(=O)c1oc2ccc(NS(=O)(=O)c3ccccc3C(F)(F)F)cc2c1C`, the IC50 in [1] was determined as 82.4 µM; in series [2] it was 74.9 µM; in [3] it was 16.5 µM; in [4], 93.9 µM. The Activity result in series [5] is on record as “Non-Toxic”.
The corresponding values for `CCOC(=O)c1oc2ccc(NS(=O)(=O)c3ccc(C)cc3)cc2c1C` are 25.2 µM, 24 µM, 45.4 µM, 53.9 µM and “Non-Toxic”.
Take `CCOC(=O)c1oc2ccc(NS(=O)(=O)c3cccs3)cc2c1C`: the IC50 in [1] stood at 44.1 µM; in series [2] it was 34.3 µM; in [3] it was 45.4 µM; in [4] it was 92.3 µM. Further, in series [5], the Activity entry is “Non-Toxic”.
As for `CCOC(=O)c1oc2ccc(NS(=O)(=O)c3ccc(C(F)(F)F)cc3)cc2c1C`, the IC50 in series [1] stood at 24.3 µM; in series [2], 27.2 µM; in series [3] it was 41.7 µM; in [4] it was 48.7 µM. The Activity result in [5] is “Non-Toxic”.
Consider `CCOC(=O)c1oc2ccc(NS(=O)(=O)c3ccc(OC)c(OC)c3)cc2c1C`, for which the Activity result was “Dose-dependent effect” in [6], “Non-Toxic” in series [7], “Non-Toxic” in series [5] and “Dose-dependent effect” in series [13]. The IC50 was found to be 35.4 µM in [1]; 20.5 µM in [2]; 12.5 µM in [3]; 18.8 µM in series [10]; 52 µM in [4]. Further, the inhibition result in series [8], in series [9], in [10], in series [11] and in series [12] was “Dose-dependent effect” each time.
Turning to `CCOC(=O)c1oc2ccc(NS(=O)(=O)c3ccc([N+](=O)[O-])cc3)cc2c1C`, the 50% inhibitory concentration (IC50) in [1] is 33.1 µM; in [2], 24 µM; in series [3], 36.2 µM; in series [4] it was 69.6 µM. Besides, in series [5], the Activity result was “Non-Toxic”.
The corresponding values for `CCOC(=O)c1oc2ccc(NS(=O)(=O)c3ccccc3[N+](=O)[O-])cc2c1C` are 80.4 µM, 96.9 µM, 24.4 µM, 157 µM and “Non-Toxic”.
In the case of `CCOC(=O)c1oc2ccc(NS(=O)(=O)c3ccc(Cl)cc3)cc2c1C`, the concentration for half-maximal inhibition (IC50) in [1] was determined as 53.9 µM; in series [2] it was 44 µM; in series [3], 50 µM; in series [4], 81.2 µM. In addition, the Activity result in series [5] is “Non-Toxic”.
As for `CCOC(=O)c1oc2ccc(NS(=O)(=O)c3cccc(C(F)(F)F)c3)cc2c1C`, the half-inhibitory concentration (IC50) in [1] was determined as 30.2 µM; in series [2] it was 28.9 µM; in series [3] it was 36.3 µM; in series [4], 51.4 µM. In series [5], the Activity entry is “Non-Toxic”.
Consider `CCOC(=O)c1oc2ccc(NS(=O)(=O)c3ccccc3C)cc2c1C`, for which the IC50 in series [1] is 89.2 µM; in [2], 53.4 µM; in [3], 19.4 µM; in series [4], 105 µM. The Activity result in series [5] is “Non-Toxic”.
The corresponding values for `CCOC(=O)c1oc2ccc(NS(=O)(=O)c3cccnc3)cc2c1C` are 141 µM, 62.9 µM, 34.1 µM, > 200 µM and “Non-Toxic”.
Consider `CCOC(=O)c1oc2ccc(NS(=O)(=O)c3cccc(Cl)c3)cc2c1C`, for which the half-inhibitory concentration (IC50) was 57.3 µM in [1], 53.7 µM in series [2], 36.6 µM in series [3] and 83.9 µM in [4]. Further, the Activity entry in [5] is reported as “Non-Toxic”.
The corresponding values for `CCOC(=O)c1oc2ccc(NS(=O)(=O)c3cccc([N+](=O)[O-])c3)cc2c1C` are 59.9 µM, 30.1 µM, 29.4 µM, 74.8 µM and “Non-Toxic”.
The like results for `CCOC(=O)c1oc2ccc(NS(=O)(=O)c3ccccc3Cl)cc2c1C` were, in that order, > 200 µM, 137 µM, 20.8 µM, > 200 µM and “Non-Toxic”.
With `CCOC(=O)c1oc2ccc(NS(=O)(=O)c3cccc(C)c3)cc2c1C`, the IC50 in [1] was 29.5 µM; in series [2], 25.3 µM; in series [3], 32.7 µM; in [4], 101 µM. Also, the Activity result in series [5] is given as “Non-Toxic”.
